Measured values published in patent EP1192182B1, “PITUITARY ADENYLATE CYCLASE ACTIVATING PEPTIDE (PACAP) RECEPTOR 3 (R3) AGONISTS AND THEIR PHARMACOLOGICAL METHODS OF USE” (priority 1999, dated 2001).
Starred links: 1 amine or outer side, 2 acyl side, 3 side chain; linkers in the order of their positions; H or OH if unused. Non-standard residues stand in square brackets, D forms with d. Residues, ends and D or L forms follow the SMILES beside them. No end group written: not given here. Tyr(Me) = O-methyl-Tyr (CH3O-Y), COc1ccc(C[C@H](N[*:1])C(=O)[*:2])cc1; Nle = CCCC[C@H](N)C(=O)O

Tests used:
PACAP-R2 = biological target: T1, PACAP-R2 (Homo sapiens, UniProt P32241); test: Cyclic AMP SPA on CHO cells transfected with PACAP-R2; type: cell-based; conditions: cAMP SPA, EC50 = concentration at which 50% of maximum PACAP27 activity is achieved, NA = no detectable activities
T1 construct: expressed in transfected cells; host or cells: CHO cells
T1 sequence (P32241 31-457): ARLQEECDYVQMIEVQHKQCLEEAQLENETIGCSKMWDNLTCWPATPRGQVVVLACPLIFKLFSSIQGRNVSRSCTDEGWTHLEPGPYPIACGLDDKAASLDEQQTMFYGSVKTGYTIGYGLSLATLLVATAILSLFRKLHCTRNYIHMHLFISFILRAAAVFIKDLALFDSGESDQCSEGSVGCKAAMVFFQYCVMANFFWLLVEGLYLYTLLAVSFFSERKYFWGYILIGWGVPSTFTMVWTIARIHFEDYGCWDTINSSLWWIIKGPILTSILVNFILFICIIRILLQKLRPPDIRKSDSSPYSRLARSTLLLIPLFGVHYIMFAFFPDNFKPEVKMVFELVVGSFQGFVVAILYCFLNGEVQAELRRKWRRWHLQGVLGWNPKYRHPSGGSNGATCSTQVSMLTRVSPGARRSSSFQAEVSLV
Experimental: (§1) CHO cells expressing the PACAP R3 were plated in 96-well plates (Costar) at 8 x 10^4 cell/well and grown at 37C for 24 hours in a MEM + nucleosides + glutamine (Giobco BRL), 10% FBS, 100 µg/ml Pen/Strep, 0.3 mg/ml glutamine, 1 mM HEPES, 0.5 mg/ml Geneticin (Gibco BRL). The media was removed and the plates were washed with PBS. The cells were incubated with a peptide, in Hepes-PBS-BSA with 0.4mg/mlSoybean Trypsin inhibitor, 0.5 mg/ml Bacitracin, 100uM IBMX, for 15 min at 37 C. Cyclic AMP in the ceii extracts was quantitated using the cAMP SPA direct screening assay system (Amersham Pharmacia Biotech Inc, Piscataway, NJ,). The peptides shown in Table 3 were assayed for cAMP activity.
(§2) EC50 is defined as the concentration of the polypeptide at which 50% of maximum PACAP27 activity is achieved. "NA" denotes no detectable activities. "R3 Selectivity" is derived from the ratio of EC50 at R2 versus EC50 at R3. […]

PACAP-R3 [1] = biological target: T2, PACAP-R3 (Homo sapiens, UniProt P41587); test: Cyclic AMP SPA on CHO cells expressing PACAP R3; type: cell-based; set-up: expressed in transfected cells; host or cells: CHO cells; conditions: cAMP SPA, CHO cells transfected with PACAP-R3; EC50 = concentration at which 50% of maximum PACAP27 activity is achieved; NA = no detectable activities
T2 sequence (P41587 24-438): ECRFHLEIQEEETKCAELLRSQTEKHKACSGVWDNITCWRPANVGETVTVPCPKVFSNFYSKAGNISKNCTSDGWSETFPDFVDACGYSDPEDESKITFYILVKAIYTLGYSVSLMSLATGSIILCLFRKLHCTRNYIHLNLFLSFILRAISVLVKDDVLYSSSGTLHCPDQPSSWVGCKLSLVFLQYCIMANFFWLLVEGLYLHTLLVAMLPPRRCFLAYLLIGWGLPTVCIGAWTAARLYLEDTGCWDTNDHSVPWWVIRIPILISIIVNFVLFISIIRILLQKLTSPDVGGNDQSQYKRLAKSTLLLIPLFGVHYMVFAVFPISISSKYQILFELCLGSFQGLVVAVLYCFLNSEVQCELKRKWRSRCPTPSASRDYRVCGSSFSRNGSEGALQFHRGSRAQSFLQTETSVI
Experimental: as §1, §2

[2] = Peptide-induced elevation of plasma insulin after IVGTT; type: in vivo; conditions: one minute after IVGTT (0.4g/kg glucose), 1 nmole/kg peptide i.v., Wistar rats
Experimental: Wistar rats are fasted overnight (17 hrs) and then anesthetized with pentobarbital (0.1 ml/100 g BW). Glucose (0.4 g/kg dissolved in 1% human albumin-saline) +/- peptide (dissolved in 1% human albumin-saline) is injected intravenously into the tail vein. The rats are eye-bled 1 minute after the injection and 50-100ul of the plasma are assayed for insulin level with the Linco RIA kit (Linco Research, Inc., St. Charles, MO).
(§3) In accordance with the protocol of example 2 above, overnight fasted Wistar rats were anesthetized with pentobarital; i.v. injected with glucose ± peptide and eye bled after 1 minute. N=12 rats/group. […] The peptide or vehicle was given i.v. followed by a glucose load given i.p. in accordance with example 3. The plasma glucose was followed over the time period indicated.
Plasma insulin: Data are expressed as % of plasma insulin one minute after IVGTT (0.4g/kg glucose) with either saline, 0.1nmol/kg P51, P55, P60, P66 or 1 nmole/kg of the other peptides including peptides which are not part of the present invention in Wistar rats. Blood was drawn from the eye and insulin was measured with the rat insulin RIA kit (Linco Research, Inc, St. Charles, MO).

PACAP-R3 [3] = biological target: T2, PACAP-R3; conditions: literature; cited from earlier work
rat islets = test: Insulin release from isolated rat islets; type: cell-based, Sprague-Dawley rats; conditions: peptide 10nM for 2hrs, 8mM glucose; % of [insulin] in 8mM glucose alone
Experimental: Sprague Dawley rats (275-320 g) were used as the source of donor islets. Briefly, the pancreas was filled with 10 ml of cold reconstituted Liberase RI (Boehringer Manheim), harvested and incubated with additional 5 ml enzyme solution in water bath for 30 minutes. Tissue suspension was washed twice with cold 10% FBS/Hanks buffer (Gibco), resuspended in 8 ml 25% ficoll (Sigma) and then layered with 5 ml each of 23%, 20% and 11 % ficoll. The islets in the 20% layer after centrifugation were removed, washed twice with cold 10% FBS/Hank buffer and resuspended in 10% FBS/RPMI 1640 media (Sigma).
Islet insulin release: Rat islets were isolated from Sprague-Dawley rats as described in example 1 and treated with either vehicle or specified peptide (10nM) for 2hrs. Insulin concentration in the medium was measured with the Linco rat insulin RIA kit. Glucose concentration in the medium was 8mM. The data are expressed as % of [insulin] in 8mM glucose alone. No polypeptide-induced Increases in insulin concentration were observed al 3 mM glucose; thus, the insulin releasing activity of these polypeptides are glucose-dependent. It should be noted that the following Table includes data for polypeptides which are not part of the present invention.

[4] = Intraperitoneal glucose tolerance test (IPGTT), plasma glucose; type: in vivo, Wistar rats; conditions: for Plasma Glucose (% of Basal) i.v.: 1 nmol/kg peptide i.v.; for glucose disposal in the rat: 1 nmole/kg dose, subcutaneous route, FIG. 7 legend
Experimental: Wistar rats are fasted overnight and then anesthetized with pentobarbital. The rats were eye-bled (zero time) and the peptide ( in 1% human albumin) was injected into the tail vein. Five minutes later, 1 g/kg of glucose (in saline) was injected intraperitoneally, and the rats were eye-bled after 15, 30 and 60 minutes. Plasma glucose levels were determined using the Technicon Axon autoanalyzer, Bayer Diagnosics division of Bayer Corporation, Tarrytown NY, operated using Method No. SM4-2143F90 "Glucose".
as §3
Wistar rats were fasted overnight and then anesthetized with Pentobarbital. The rats were eye-bled (zero time) and the peptide (in 1 % human albumin) was injected subcutaneously. Five minutes later, 1 g/kg of glucose (in saline) was injected intraperitoneally, and the rats were eye-bled after 30 minutes.
Plasma glucose: Data are expressed as % of vehicle of plasma glucose area under the curve after IPGTT (1 g/kg glucose) after treatment with 1 nmol/kg dose of the peptide. […] The present Inventors have shown for the first time that this is because the effects of R2 and R3 on glucose tend to cancel each other out. […] Therefore, R3-selectlvlty appears to be a desirable attribute for medicaments which are to be employed in achieving blood glucose reduction, for treatment of type 2 diabetes.

[5] = in vivo; cited from earlier work
[6] = Heart rate in conscious dogs; conditions: i.v., AUC of first 10 minutes of heart rate change
Experimental: Beagle dogs were put into a sling where they have been trained to stand for up to 3 hours. The cuff of the heart rate monitor was placed around the tail of the dog.
Saline was injected into the cephalic vein and heart rate monitored every 2 minutes to establish a baseline. After 10 minutes, peptide, including peptides which are not part of the invention, was injected and heart rate monitored every 2 minutes for the next 20 minutes. If heart rate was normal at that time, a higher dose was given and heart rate monitored for 20 minutes.

[7] = plasma glucose area under the curve after IPGTT (1 g/kg glucose), % of vehicle

## CC[C@H](C)[C@H](NC(=O)CNC(=O)[C@H](CC(=O)O)NC(=O)[C@H](CO)NC(=O)[C@@H](N)Cc1c[nH]cn1)C(=O)N[C@@H](Cc1ccccc1)C(=O)N[C@H](C(=O)N[C@@H](CC(=O)O)C(=O)N[C@@H](CO)C(=O)N[C@@H](CCCCN)C(=O)N[C@@H](CO)C(=O)N[C@@H](CCCNC(=N)N)C(=O)N[C@@H](Cc1ccc(O)cc1)C(=O)N[C@@H](CCCNC(=N)N)C(=O)N[C@@H](CCCCN)C(=O)N[C@@H](CCC(N)=O)C(=O)N[C@@H](CCSC)C(=O)N[C@@H](C)C(=O)N[C@H](C(=O)N[C@@H](CCCCN)C(=O)N[C@@H](CCCCN)C(=O)N[C@@H](Cc1ccc(O)cc1)C(=O)N[C@@H](CC(C)C)C(=O)N[C@@H](C)C(=O)N[C@@H](C)C(=O)N[C@H](C(=O)N[C@@H](CC(C)C)C(N)=O)C(C)C)C(C)C)[C@@H](C)O [PAC10]
PACAP-R2
  EC50: 110 nM
PACAP-R3 [1]
  EC50: 27 nM

## CC(C)C[C@H](NC(=O)[C@H](CCC(N)=O)NC(=O)[C@H](CCCCN)NC(=O)[C@H](CCCNC(=N)N)NC(=O)[C@H](CC(C)C)NC(=O)[C@H](CCCCN)NC(=O)[C@@H](NC(=O)[C@H](Cc1ccc(O)cc1)NC(=O)[C@H](CC(N)=O)NC(=O)[C@H](CCC(=O)O)NC(=O)[C@@H](NC(=O)[C@H](Cc1ccccc1)NC(=O)[C@@H](NC(=O)[C@H](C)NC(=O)[C@H](CC(=O)O)NC(=O)[C@H](CO)NC(=O)[C@@H](N)Cc1c[nH]cn1)C(C)C)[C@@H](C)O)[C@@H](C)O)C(=O)N[C@@H](C)C(=O)N[C@@H](C)C(=O)N[C@@H](CCCCN)C(=O)N[C@@H](CCCCN)C(=O)N[C@@H](Cc1ccc(O)cc1)C(=O)N[C@@H](CC(C)C)C(=O)N[C@@H](CC(N)=O)C(=O)N[C@@H](CC(=O)O)C(=O)N[C@@H](CC(C)C)C(=O)N[C@@H](CCCCN)C(=O)N[C@@H](CCCCN)C(=O)NCC(=O)NCC(=O)N[C@H](C(=O)N[C@@H](CO)C(=O)N[C@@H](Cc1c[nH]c2ccccc12)C(=O)N[C@@H](CS)C(=O)N[C@@H](CCC(=O)O)C(=O)N1CCC[C@H]1C(=O)NCC(=O)N[C@@H](Cc1c[nH]c2ccccc12)C(=O)N[C@@H](CS)C(=O)N[C@@H](CCCNC(=N)N)C(=O)O)[C@@H](C)O [Peptide R3P19] (H-HSDAVFTENYTKLRKQLAAKKYLNDLKKGGTSWCEPGWCR-OH; C-terminus assumed)
[2]
  Plasma Insulin (% of Basal): 285 % of Basal

## Ac-HSDAVFTEN(CH3O-Y)TKLRKQNIeAAKKYLNDLKK-NH2 (Ac-HSDAVFTEN[Tyr(Me)]TKLRKQ[Nle]AAKKYLNDLKK-NH2) [Peptide R3P4]
PACAP-R3 [3]
  PACAP-R3 selectivity: greater than 100 fold

## Ac-HSDAVFTENYTKLRKQLAAKKYLNDLKKGGT-NH2 [Peptide R3P1]
Rat islets
  Islet Insulin Release (% of Basal): 250 % of Basal
[4]; [7]
  Plasma Glucose (% of Basal) i.v.: 73 % of Basal
[2]
  Plasma Insulin (% of Basal): 480 % of Basal

## HAEGTFTSDV SSYLEGQAAK EFIAWLKGR-NH2 [GLP-1]
[5]
  plasma half-life: a few minutes
[4]
  glucose disposal in the rat: enhance glucose disposal

## HSDAVFTDNYTRLRKQLAAKKYLNDIKK-NH2 [Peptide R3P13]
Rat islets
  Islet Insulin Release (% of Basal): 170 % of Basal
[4]
  glucose disposal in the rat: enhance glucose disposal
[4]; 1 nmole/kg s.c., vehicle: 160 mg/dl above basal, Figure 7
  elevation of plasma glucose 30 minutes after IPGTT: significantly reduced
[4]; plasma glucose area under the curve after IPGTT (1 g/kg glucose), % of vehicle, 1 nmol/kg peptide s.c.
  Plasma Glucose (% of Basal) s.c.: 77 % of Basal
[2]
  Plasma Insulin (% of Basal): 465 % of Basal

## HSDGIFTDSYSRYRKQLAAKKYLADVKK [Peptide R3P38]
PACAP-R2
  EC50: 17 nM
PACAP-R3 [1]
  EC50: 2.3 nM

## [K15, R16, L27]VIP(1-7)/GRF(8-27) [Peptide R2P1]
[6]
  potency in heart rate increase, fold less potent than PACAP27 or maxadilan: at least 10 fold
[4]; IPGTT, 1 nmol/kg
  increases plasma glucose level: 14%
[4]; [7]
  Plasma Glucose (% of Basal) i.v.: 114 % of Basal
[2]
  Plasma Insulin (% of Basal): 216 % of Basal
